Data reported in article PMC5689459 (European journal of medicinal chemistry, 2010).
Like-named read-outs stand apart in the source and are kept apart here. Where a SMILES comes first, the peptide text is derived from it. [ ]: non-standard residue; d: D form. d(β3hP) = O=C(O)C[C@H]1CCCN1; β3hP = O=C(O)C[C@@H]1CCCN1

Columns and labels:
[1] = target: T1, μ-opioid receptor (Homo sapiens, UniProt P35372); assay: Radioligand competition binding, displacement of [3H]DAMGO; details: for Selectivity Kiδ/Kiμ: ratio of δ and μ binding Ki
[2] = target: κ-opioid receptor (Homo sapiens, UniProt P41145); assay: Radioligand competition binding, displacement of [3H]U69,593
[3] = target: T2, δ-opioid receptor (Homo sapiens, UniProt P41143); assay: Radioligand competition binding, displacement of [3H]DPDPE
[4] = target: μ-opioid receptors (GPI); assay: GPI/LMMP in vitro tissue bioassay; type: biochemical, guinea pig; details: read-out: Bioassay GPI (IC50); ± S.E.M.
[5] = target: T2, δ-opioid receptor; details: read-out: Receptor affinity Kiδ; cited from earlier work
[6] = target: δ-opioid receptors (MVD) (Mus musculus, UniProt P32300); assay: MVD in vitro tissue bioassay; type: biochemical
[7] = target: T1, μ-opioid receptor; details: ratio of δ and μ binding Ki; cited from earlier work

Compound | Ki [1] [µM] | Ki [2] [µM] | Selectivity Kiδ/Kiμ [1] | Ki [3] [µM] | IC50 [4] [µM] | Ki [5] [µM] | Bioassay MVD, % at 1 μM [6] [% at 1 μM] | Selectivity Kiδ/Kiμ [7]
NC(=O)[C@H](Cc1ccccc1)NC(=O)[C@H](Cc1ccccc1)NC(=O)C[C@@H]1CCCN1C(=O)[C@@H](N)Cc1ccc(O)cc1 [Compound 6a, H–Tyr–(S)-HPro–Phe–Phe–NH2] | 0.058 ± 0.005 | 0.99 ± 0.012 | – | – | – | – | – | –
NC(=O)[C@H](Cc1ccccc1)NC(=O)[C@H](Cc1ccccc1)NC(=O)C[C@H]1CCCN1C(=O)[C@@H](N)Cc1ccc(O)cc1 [Compound 6b, H–Tyr–(R)-HPro–Phe–Phe–NH2] | 0.293 ± 0.027 | 10 ± 1.2 | > 34 | > 10 | – | – | – | –
NC(=O)[C@H](Cc1ccccc1)NC(=O)[C@H](Cc1ccccc1)NS(=O)(=O)C[C@@H]1CCCN1C(=O)[C@@H](N)Cc1ccc(O)cc1 [Compound 6c, H–Tyr–(S)-HPrs–Phe–Phe–NH2] | 0.1 ± 0.008 | 4.8 ± 0.367 | – | – | – | – | – | –
NC(=O)[C@@H]1CCCN1C(=O)[C@H](Cc1ccccc1)NC(=O)C[C@H]1CCCN1C(=O)[C@@H](N)Cc1ccc(O)cc1 [Compound 7b, H–Tyr–(R)-HPro–Phe–Pro–NH2] (H-Y[d(β3hP)]FP-NH2) | 0.03 ± 0.004 | 10 ± 0.982 | > 333 | > 10 | 0.017 ± 0.003 | – | – | –
Tyr–Pro–Phe–Pro–NH2 (YPFP) [Morphyceptin] | – | – | – | – | – | > 10 | – | –
NC(=O)[C@@H]1CCCN1C(=O)[C@H](Cc1ccccc1)NC(=O)C[C@@H]1CCCN1C(=O)[C@@H](N)Cc1ccc(O)cc1 [Compound 7a, H–Tyr–(S)-HPro–Phe–Pro–NH2] (H-Y[β3hP]FP-NH2) | 6.1 ± 0.553 | 4.4 ± 0.356 | – | > 10 | 1.1 ± 0.115 | – | 33.7 | –
Tyr–Pro–Phe–Pro–NH2 [Morphyceptin] | – | – | – | – | – | – | – | > 74.1
